{"source": "patent US20040028714A1", "about": "“Composition having insect repellent characteristics” (priority 2000, published 2004)", "key": {"[1]": {"system": "Black Ants (Ochetellus sp)", "assay": "Ant repellency on half-treated formica (Example 4)", "format": "in vivo", "conditions": "20 mg/m^2 on formica; for Number of Black Ants present, Treated Section / Number of Black Ants present, Untreated Section / Number of Black Ants, Dead: single replicates (n = 20); for Number of Black Ants present, Treated Section, Total / Number of Black Ants present, Untreated Section, Total / Number of Black Ants, Dead, Total: total of 4 replicates (80)", "method": "The effectiveness of compound 2 (example 1) as an insect repellent was determined using ants exposed to a formica surface partially treated/partially untreated with compound 2, and was directly compared to the repellency of the well known insect repellents Farnesol and Dihydrofarnesal.\nThe study was conducted in an air conditioned laboratory at a temperature of 22°±2° C. under a normal day/night cycle, using Black Ants (Ochetellus sp) of mixed sex and age. The study ws conducted over a 3 day period and the repellent effectiveness assessed 1, 2 and 3 days after ant introduction.\nOne half of a rectangle of formica 40 cm×30 cm was treated at 20 mg/m^2 with the test compounds. This was achieved by soaking a paper wipe (Rag On A Roll approximately 20 cm×20 cm) in a solution of the test compound in ethanol, squeezing out the excess liquid and wiping over the surface to give the required coverage. This was checked by weighing the cloth after application. The surface was allowed to dry. The other half was wiped with ethanol alone (untreated surface).\nThe treated formica rectangle was placed on the bench and a glass ring (diameter 20 cm) was placed on the rectangle. This had been treated with fluon to prevent ant escape.\nA small plastic container 2 cm in diameter was placed on the formica, one on the treated surface and one on the untreated surface. The plastic container placed on the treated surface had repellent applied in the same way as the treated formica. The plastic container on the untreated surface was wiped with ethanol.\n24 hours after treatment (1 day) 20 ants were added to the centre of the formica. No food and water was supplied for these ants. 2 hours after this the number of ants on the treated and untreated surfaces was counted.\nThe above was repeated 3 times to provide a total of 4 replicates.\nThe above was repeated at 2 days and 3 days. New ants were used at each time period."}, "[2]": {"system": "German cockroaches (Blatella Germanica)", "assay": "Cockroach repellency screening on partially treated formica surface (Example 2)", "format": "in vivo", "conditions": "cockroaches, 20 mg/m^2 on formica", "method": "The effectiveness of compounds of formula I as an insect repellent was determined using German cockroaches exposed to a formica surface partially treated/partially untreated with a test compound of formula I. The study was conducted in an air conditioned laboratory at a temperature of 22°±2° C. under a normal day/night cycle, using German cockroaches (Blatella Germanica) of mixed sex and age. The study was conducted over a 3 day period and the repellent effectiveness assessed 1, 2 and 3 days after cockroach introduction. A rectangle of formica 40 cm×30 cm was treated at 20 mg/m^2 with a test compound of formula I. This was achieved by soaking a paper wipe (Rag on a Roll ca 20 cm×20 cm) in a solution of the test compound in ethanol, squeezing out the excess liquid and wiping over the surface to give the required coverage. This was checked by weighing the cloth after application. The surface was allowed to dry. A similar rectangle was wiped with ethanol alone (untreated surface). The treated formica rectangle was placed on the bench and a plastic container was placed on the rectangle. This had been treated with fluon to prevent cockroach escape. Two sheets of formica (10 cm×10 cm) were placed on the formica, one on the treated surface and one on the untreated surface. This acted as a cockroach harbourage. The formica sheet to be used in the treated section was treated at the same rate as the treated formica. The formica was placed on two 1 cm high bottle tops to allow cockroaches access under the formica. 20 German cockroaches were added (5 adults and 15 nymphs) to the centre of the formica. No food and water was supplied for these cockroaches. At 1, 2 and 3 days after cockroach introduction the number of cockroaches under each harbourage was counted. After each count the harbourage position was change to avoid the possibility of […] were replaced and new cockroaches were added to replace any dead cockroaches. The above was repeated 3 times to provide a total of 4 replicates."}, "[3]": {"conditions": "ants, average of days 1, 2 and 3"}}, "note": "Where “and” joins values, the source holds several entries; their conditions need not be identical. Equal entries are not always repeated.", "data": [{"smiles": "CCNC(=O)C1CC(C)CCC1C(C)C", "note": "(stereo not drawn) [Compound 2, N-ethyl-p-menthane-3-carboxamide]", "values": [{"measurement": "ant repellency (in words)", "setting": "[1]; 1, 2 and 3 days after treatment", "value": "superior to these two products"}, {"measurement": "Number of Black Ants present, Treated Section", "setting": "[1]; day 1", "value": "0 (2×) and 2 and 1"}, {"measurement": "Number of Black Ants present, Untreated Section", "setting": "[1]; day 1", "value": "20 (2×) and 18 and 19"}, {"measurement": "Number of Black Ants, Dead", "setting": "[1]; day 1", "value": 0}, {"measurement": "Number of Black Ants present, Treated Section, Total", "setting": "[1]; day 1", "value": 3}, {"measurement": "Number of Black Ants present, Untreated Section, Total", "setting": "[1]; day 1", "value": 77}, {"measurement": "Number of Black Ants, Dead, Total", "setting": "[1]; day 1", "value": 0}, {"measurement": "Number of Black Ants present, Treated Section", "setting": "[1]; day 2", "value": "1 and 3 (2×) and 2"}, {"measurement": "Number of Black Ants present, Untreated Section", "setting": "[1]; day 2", "value": "19 and 17 (2×) and 18"}, {"measurement": "Number of Black Ants, Dead", "setting": "[1]; day 2", "value": 0}, {"measurement": "Number of Black Ants present, Treated Section, Total", "setting": "[1]; day 2", "value": 9}, {"measurement": "Number of Black Ants present, Untreated Section, Total", "setting": "[1]; day 2", "value": 71}, {"measurement": "Number of Black Ants, Dead, Total", "setting": "[1]; day 2", "value": 0}, {"measurement": "Number of Black Ants present, Treated Section", "setting": "[1]; day 3", "value": "0 and 1 and 2 and 3"}, {"measurement": "Number of Black Ants present, Untreated Section", "setting": "[1]; day 3", "value": "20 and 19 and 18 and 17"}, {"measurement": "Number of Black Ants, Dead", "setting": "[1]; day 3", "value": 0}, {"measurement": "Number of Black Ants present, Treated Section, Total", "setting": "[1]; day 3", "value": 6}, {"measurement": "Number of Black Ants present, Untreated Section, Total", "setting": "[1]; day 3", "value": 74}, {"measurement": "Number of Black Ants, Dead, Total", "setting": "[1]; day 3", "value": 0}, {"measurement": "Percentage Dead", "setting": "[1]; ants, 1 day after treatment", "value": 0, "unit": "%"}, {"measurement": "Percentage Present, Treated Section", "setting": "[1]; ants, 1 day after treatment", "value": 3.7, "unit": "%"}, {"measurement": "Percentage Present, Untreated Section", "setting": "[1]; ants, 1 day after treatment", "value": 96.3, "unit": "%"}, {"measurement": "Percentage Dead", "setting": "[1]; ants, 2 days after treatment", "value": 0, "unit": "%"}, {"measurement": "Percentage Present, Treated Section", "setting": "[1]; ants, 2 days after treatment", "value": 11.2, "unit": "%"}, {"measurement": "Percentage Present, Untreated Section", "setting": "[1]; ants, 2 days after treatment", "value": 88.8, "unit": "%"}, {"measurement": "Percentage Dead", "setting": "[1]; ants, 3 days after treatment", "value": 0, "unit": "%"}, {"measurement": "Percentage Present, Treated Section", "setting": "[1]; ants, 3 days after treatment", "value": 7.5, "unit": "%"}, {"measurement": "Percentage Present, Untreated Section", "setting": "[1]; ants, 3 days after treatment", "value": 92.5, "unit": "%"}, {"measurement": "Percentage Dead, Average", "setting": "[1]; [3]", "value": 0, "unit": "%"}, {"measurement": "Percentage Present, Treated Section, Average", "setting": "[1]; [3]", "value": 7.5, "unit": "%"}, {"measurement": "Percentage Present, Untreated Section, Average", "setting": "[1]; [3]", "value": 92.5, "unit": "%"}, {"measurement": "Percentage Dead", "setting": "[2]; 1 day after treatment", "value": 0, "unit": "%"}, {"measurement": "Percentage Present, Treated Section", "setting": "[2]; 1 day after treatment", "value": 17.5, "unit": "%"}, {"measurement": "Percentage Present, Untreated Section", "setting": "[2]; 1 day after treatment", "value": 82.5, "unit": "%"}, {"measurement": "Percentage Dead", "setting": "[2]; 2 days after treatment", "value": 1.2, "unit": "%"}, {"measurement": "Percentage Present, Treated Section", "setting": "[2]; 2 days after treatment", "value": 16.3, "unit": "%"}, {"measurement": "Percentage Present, Untreated Section", "setting": "[2]; 2 days after treatment", "value": 82.5, "unit": "%"}, {"measurement": "Percentage Dead", "setting": "[2]; 3 days after treatment", "value": 2.5, "unit": "%"}, {"measurement": "Percentage Present, Treated Section", "setting": "[2]; 3 days after treatment", "value": 13.8, "unit": "%"}, {"measurement": "Percentage Present, Untreated Section", "setting": "[2]; 3 days after treatment", "value": 83.7, "unit": "%"}, {"measurement": "Percentage Present, Treated Section, Average", "setting": "[2]; average of days 1, 2 and 3", "value": 15.9, "unit": "%"}, {"measurement": "Percentage Present, Untreated Section, Average", "setting": "[2]; average of days 1, 2 and 3", "value": 82.9, "unit": "%"}]}]}
